Experimental data from patent publication US20100144802A1, “Small Molecule Inhibitors for Immune Modulation” (priority 2007, published 2010).

Experiments:
[1] = test system: T cells isolated from peripheral blood of GBM patients; assay: T cell proliferation (CFSE dilution) with treated antigen-presenting cells; format: cell-based, human; conditions: GBM patient T cells with treated macrophages/APCs; WP1066 1 μM, LPS 5 μg/mL, 4 days
Method: PBMCs from normal human donors (n=5) were incubated for 24 hrs at 37° C., 5% CO2, in either medium (RPMI 1640+10% fetal bovine serum) or medium supplemented with 5 μM WP1066. Cells were then stained with fluorescent antibodies to CD11b and either CD80 or CD86 and analyzed by flow cytometry. Glioma-infiltrating microglia were purified from freshly resected GBM patient tumor tissue (n=3) and incubated in either medium or medium supplemented with WP1066 (1 μM). After incubation, microglia (CD11b^+/CD45^+) were double stained with fluorescent antibodies to CD11b and either CD80 or CD86, and analyzed by flow cytometry. […] Cells were then labeled with CD11b/CD14 macrophage markers and stained and analyzed for intracellular cytokine production. Percentages of macrophages that were CD11b^+/CD14^+ and also positive for the respective cytokine were calculated by flow cytometry analysis. A scatter plot representative of all samples analyzed for macrophage intracellular cytokine production was determined with LPS-treated cells (circles) and WP1066-treated cells (diamonds). The black bars denote the mean values of each subgroup, p values determining statistical significance between LPS-stimulated groups and WP1066-stimulated groups were determined using Student's t test (NS, not statistically significant). […] Purity of all cell populations was determined to be at least 97% by flow cytometry. […]

[2] = test system: T cells; assay: Immunoblotting of signaling proteins in GBM patient T cells; format: cell-based, human; conditions: 5 μM
Method: (§1) To determine how WP1066 induces these potent immune responses, T cells and monocytes isolated from GBM patients were treated with WP1066 and subsequently lysed and analyzed by immunoblotting for critical signaling proteins. […] The tyrosine phosphorylation of Syk initiates downstream signaling events during human monocyte activation, whereas the phosphorylation of Tyr319 in Zap-70 plays a critical role in mediating T cell activation via signaling through the T cell receptor. Raeder, E. M. et al. J Immunol 163, 6785-93 (1999); Williams, B. L. et al. EMBO 18, 1832-1844 (1999). Both Syk and ZAP-70 can be phosphorylated through autophosphorylation and transphosphorylation. […] The tyrosine phosphorylation of critical signaling proteins induced/enhanced by WP1066 are likely pivotal to the WP1066-induced restoration of immune function in GBM patients and explains the mechanisms of potent immune activation.
PBMCs from normal human donors (n=5) were incubated for 24 hrs at 37° C., 5% CO2, in either medium (RPMI 1640+10% fetal bovine serum) or medium supplemented with 5 μM WP1066. Cells were then stained with fluorescent antibodies to CD11b and either CD80 or CD86 and analyzed by flow cytometry. […] After incubation, microglia (CD11b^+/CD45^+) were double stained with fluorescent antibodies to CD11b and either CD80 or CD86, and analyzed by flow cytometry. […] Cells were then labeled with CD11b/CD14 macrophage markers and stained and analyzed for intracellular cytokine production. Percentages of macrophages that were CD11b^+/CD14^+ and also positive for the respective cytokine were calculated by flow cytometry analysis. A scatter plot representative of all samples analyzed for macrophage intracellular cytokine production was determined with LPS-treated cells (circles) and WP1066-treated cells (diamonds). The black bars denote the mean values of each subgroup, p values determining statistical significance between LPS-stimulated groups and WP1066-stimulated groups were determined using Student's t test (NS, not statistically significant). […]

[3] = test system: intracerebral B16 cells; assay: Survival of C57BL/6J mice with established intracerebral tumors; format: in vivo
[4] = test system: normal donor PBMCs; assay: Cell death (propidium iodide) of macrophages and T cells in PBMCs; format: cell-based, human; conditions: 1 nM-5 μM, 2 and 4 hours
Method: (§2) FIG. 1 depicts the novel small molecule inhibitor, WP1066, that inhibits Stat-3 activity and has significant central nervous system (CNS) and glioma tumor penetration in vitro and in vivo. FIG. 1A provides the chemical structure of WP1066. […] WP1066 was injected intraperitoneally (IP) at doses of 100 mg/kg every other day for two weeks in nude mice. Specifically, plasma, CNS tissue, and U87-MG flank tumors were harvested and, after extraction, were analyzed for WP1066 content using tandem liquid chromatography/mass spectrometry. […] Cells were stained with fluorescently-labeled anti-CD3 and anti-CD11b antibodies, and propidium iodide (PI) and analyzed by flow cytometry. Macrophages and T cells were gated on CD11b^+ and CD3^+ populations, respectively, and cell death (%) was quantified as CD11b^+PI^+ or CD3^+PI^+ populations in the respective plots. Plots represent the 5 μM maximum dose (clear histogram) compared to control untreated cells (shaded histogram) incubated under similar conditions.

[5] = test system: intracerebral B16; assay: Survival of nude mice with established intracerebral B16; format: in vivo
[6] = test system: Foxp3; assay: Intracellular Foxp3 expression in iTreg differentiation and natural Tregs by flow cytometry; format: cell-based, C57BL/6J mice; conditions: 0, 0.1 and 1 μM, more than 96 hours
Method: CD4+CD25−CD62L^hi naïve T cells from C57BL/6J mice were stimulated by plate-bound anti-CD3 (2 μg/ml) and soluble anti-CD28 (2 μg/ml) antibodiesin the presence of TGF-β1 (1 ng/ml) plus hIL-2 (200 U/ml) with addition of different concentrations of WP1066 (0, 0.1, and 1 μM) for inducible Treg (iTreg) differentiation; CD4+CD25+ T cells (natural Tregs [nTreg]) were stimulated by plate-bound anti-CD3 (2 μg/ml) antibodies in the presence of hIL-2 (200 U/ml) with addition of different concentrations of WP1066 (0, 0.1, and 1 μM). More than 96 hours after stimulation, the cells were analyzed for intracellular Foxp3 expression using flow cytometry.

[7] = test system: tumor cell types, including malignant gliomas; conditions: variety of tumor cell types; cited from earlier work
[8] = test system: macrophages; assay: Macrophage intracellular cytokine production by flow cytometry; format: cell-based, human; conditions: 4 hrs
Method: PBMCs from normal human donors (n=5) were incubated for 24 hrs at 37° C., 5% CO2, in either medium (RPMI 1640+10% fetal bovine serum) or medium supplemented with 5 μM WP1066. Cells were then stained with fluorescent antibodies to CD11b and either CD80 or CD86 and analyzed by flow cytometry. Glioma-infiltrating microglia were purified from freshly resected GBM patient tumor tissue (n=3) and incubated in either medium or medium supplemented with WP1066 (1 μM). After incubation, microglia (CD11b^+/CD45^+) were double stained with fluorescent antibodies to CD11b and either CD80 or CD86, and analyzed by flow cytometry. Numbers in the upper right quadrant of each graph denote the percentage of CD11b^+ gated cells that express either CD80 or CD86. […] Cells were then labeled with CD11b/CD14 macrophage markers and stained and analyzed for intracellular cytokine production. Percentages of macrophages that were CD11b^+/CD14^+ and also positive for the respective cytokine were calculated by flow cytometry analysis. A scatter plot representative of all samples analyzed for macrophage intracellular cytokine production was determined with LPS-treated cells (circles) and WP1066-treated cells (diamonds). The black bars denote the mean values of each subgroup, p values determining statistical significance between LPS-stimulated groups and WP1066-stimulated groups were determined using Student's t test (NS, not statistically significant). […] Carboxyfluoroscein succinimidyl ester (CFSE)-labeled CD8^+ T cells isolated from newly diagnosed GBM patients were incubated with untreated autologous APCs (CD11b^+/CD14^+) and anti-CD3 antibody, with anti-CD3 antibody+anti-CD28 antibody, and with LPS-treated (5 μg/mL) autologous APCs or WP1066-treated (1 μM) autologous APCs. In all cases, cells were incubated for 4 days at 37° C., 5% CO2, followed by surface staining for T cell markers (CD3, CD8) and analysis by flow cytometry. The number on each plot indicates the percentage of CD8^+ gated cells that have undergone cell division via CFSE dilution. […] For (A-C), modified Percoll density gradient (1.083 g/mL) centrifugation was used to isolate PBMCs of both GBM patients and normal donors. CD8+ T cells were isolated by magnetic bead separation and then labeled with CFSE. Autologous APCs were purified from the above density gradient buffy-coat layer by negative selection, using a monocyte bead isolation kit and magnetic separation column. Purity of all cell populations was determined to be at least 97% by flow cytometry. Autologous microglia/macrophages from GBM patients were purified from freshly resected human glioma/brain tissue using a modified Percoll gradient isolation technique. All APCs were treated with the respective stimulants (control medium alone, LPS, or WP1066) for 24 hours and then washed prior to incubation with T cells in the proliferation assay. […] T cells from the same patients were isolated with human CD3 microbeads and a magnetic separation column, with the exception of one patient who lacked sufficient PBMCs for both monocyte and T cell isolations. Monocytes or T cells seeded at a density of 1×10^6 cells per well in 6-well culture plates and were incubated at 37° C., 5% CO2, with either the medium or medium supplemented with 5 μM WP1066. After 2 hours, monocytes and T cells were stimulated for 5 minutes with 2 μg/mL LPS and 5 μg/mL anti-CD3 antibody, respectively, in the presence or absence of WP1066. […]

[9] = Plasma concentration after oral administration; format: in vivo; conditions: mice
Excerpt: Patients with malignant human gliomas have a preponderance of immunosuppressive cytokines, a lack of effector/activated T cells, enhanced regulatory T cells (Tregs), and inadequate antigen-presentation functional activity, contributing to their profound immunosuppression. Known immune stimulators within these patients are insufficient to overcome these influences. Therefore, we investigated whether a pharmacological derivative of the natural compound, caffeic acid (WP1066)(FIG. 1A), a small molecule inhibitor of Stat-3 activity, can (in physiologically relevant doses) attenuate these suppressed immune responses.

[10] = test system: monocytes isolated from GBM patients; assay: Immunoblotting of signaling proteins in GBM patient monocytes; format: cell-based, human; conditions: 5 μM
Method: as §1
(§3) PBMCs from normal human donors (n=5) were incubated for 24 hrs at 37° C., 5% CO2, in either medium (RPMI 1640+10% fetal bovine serum) or medium supplemented with 5 μM WP1066. Cells were then stained with fluorescent antibodies to CD11b and either CD80 or CD86 and analyzed by flow cytometry. Glioma-infiltrating microglia were purified from freshly resected GBM patient tumor tissue (n=3) and incubated in either medium or medium supplemented with WP1066 (1 μM). After incubation, microglia (CD11b^+/CD45^+) were double stained with fluorescent antibodies to CD11b and either CD80 or CD86, and analyzed by flow cytometry. Numbers in the upper right quadrant of each graph denote the percentage of CD11b^+ gated cells that express either CD80 or CD86. […] Cells were then labeled with CD11b/CD14 macrophage markers and stained and analyzed for intracellular cytokine production. Percentages of macrophages that were CD11b^+/CD14^+ and also positive for the respective cytokine were calculated by flow cytometry analysis. A scatter plot representative of all samples analyzed for macrophage intracellular cytokine production was determined with LPS-treated cells (circles) and WP1066-treated cells (diamonds). The black bars denote the mean values of each subgroup, p values determining statistical significance between LPS-stimulated groups and WP1066-stimulated groups were determined using Student's t test (NS, not statistically significant). […] Carboxyfluoroscein succinimidyl ester (CFSE)-labeled CD8^+ T cells isolated from newly diagnosed GBM patients were incubated with untreated autologous APCs (CD11b^+/CD14^+) and anti-CD3 antibody, with anti-CD3 antibody+anti-CD28 antibody, and with LPS-treated (5 μg/mL) autologous APCs or WP1066-treated (1 μM) autologous APCs. […] Purity of all cell populations was determined to be at least 97% by flow cytometry. […]

[11] = mouse, in vivo
Method: as §2

[12] = test system: CD80 and CD86; assay: Costimulatory molecule expression (CD80, CD86) by flow cytometry; format: cell-based, human
Method: as §3, with “APCs. In all cases, cells were incubated for 4 days at 37° C., 5% CO2, followed by surface staining for T cell markers (CD3, CD8) and analysis by flow cytometry.” for “APCs.”

[13] = target: T1, Stat-3 (Homo sapiens, UniProt P40763); assay: Phosphorylated Stat-3 by intracellular staining and flow cytometry in PBMCs; format: cell-based; conditions: doses achievable in vivo (1 nM-5 μM)
T1 construct: normal donor peripheral blood mononuclear cells (PBMCs) were assessed for phosphorylated Stat-3 activity; endogenous in cells; host or cells: normal donor peripheral blood mononuclear cells (PBMCs)

[14] = test system: CD80 and CD86; conditions: cited from earlier work
[15] = normal donors and GBM patients, 5 μM

T1 sequence (P40763 whole entry): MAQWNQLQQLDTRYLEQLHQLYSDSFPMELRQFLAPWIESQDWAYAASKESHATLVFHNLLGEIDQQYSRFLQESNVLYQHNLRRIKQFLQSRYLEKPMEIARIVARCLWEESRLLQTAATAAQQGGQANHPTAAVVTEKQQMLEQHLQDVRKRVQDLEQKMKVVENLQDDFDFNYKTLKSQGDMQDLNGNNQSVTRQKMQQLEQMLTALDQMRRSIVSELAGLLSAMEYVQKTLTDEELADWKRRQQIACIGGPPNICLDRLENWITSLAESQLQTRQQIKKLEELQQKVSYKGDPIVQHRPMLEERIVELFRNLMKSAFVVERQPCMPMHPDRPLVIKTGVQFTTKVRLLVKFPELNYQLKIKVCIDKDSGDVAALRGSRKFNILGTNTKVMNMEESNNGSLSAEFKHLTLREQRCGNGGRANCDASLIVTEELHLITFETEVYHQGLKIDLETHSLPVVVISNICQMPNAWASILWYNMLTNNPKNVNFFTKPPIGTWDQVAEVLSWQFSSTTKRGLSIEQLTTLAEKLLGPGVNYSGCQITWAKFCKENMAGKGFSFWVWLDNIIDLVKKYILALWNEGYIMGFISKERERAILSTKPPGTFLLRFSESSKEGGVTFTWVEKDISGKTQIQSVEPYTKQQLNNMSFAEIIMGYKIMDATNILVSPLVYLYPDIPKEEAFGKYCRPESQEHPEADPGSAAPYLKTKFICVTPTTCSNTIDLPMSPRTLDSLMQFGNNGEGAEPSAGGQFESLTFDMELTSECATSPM

## C[C@H](NC(=O)/C(C#N)=C/c1cccc(Br)n1)c1ccccc1 [WP1066]
[1]
  T cell proliferation: potently induced T cell proliferation
[2]
  levels of p56-Lck: increased
  phospho-ZAP-70 (Tyr319): induced
  total protein level of ZAP-70: markedly decreased
[3]; animals surviving longer than 78 days, tumor cells into contralateral hemisphere
  immunological memory on rechallenge: minimal immunological memory was induced
[3]; established intracerebral B16 cells, oral gavage, compared with B16EGFRvIII model
  anti-tumor efficacy (survival): Identical anti-tumor efficacy
[3]; established intracerebral syngeneic murine models
  efficacy after in vivo depletions of CD4+ and CD8+ T cells: abrogates the efficacy
[4]
  cell viability: not compromised
[5]
  clinical effectiveness (survival) in immune incompetent background: abrogates the clinical effectiveness
[6]
  Foxp3 expression in natural Tregs: downregulates Foxp3 expression
[6]; iTreg differentiation
  Foxp3 induction in peripheral T cells: inhibits Foxp3 induction
[7]
  proapoptotic activity: proapoptotic activity
[8]; [15]
  IL-2 induction from macrophages: induce
  IL-4 induction from macrophages: induce
  IL-12 induction from macrophages: induce
  IL-15 induction from macrophages: induce
[9]
  plasma concentrations: > 2 µM
[10]; proteins of 70 to 75 KDa and 50 to 60 KDa, also T cells
  tyrosine phosphorylation in monocytes and T cells: induced or enhanced
[10]; monocytes
  levels of p57/p59-Hck: increased
  phospho-p72Syk (Tyr352): induced
  total protein level of Syk: didn't affect
[11]
  uptake of the compound by tumors versus other tissue: higher drug content than any other tissue
[11]; nude
  central nervous system (CNS) concentrations: 0.185 µM
  concentrations in tumor: 1.07 µM
  concentrations per gram of tumor: 362 μg/gram
  concentrations within orthotopic gliomas: 1.07 µM
[12]; 1 μM
  CD80 and CD86 on tumor-infiltrating microglia/macrophages from GBM patients: capable of upregulating CD80 and CD86
[12]; 5 μM, 24 hrs
  CD80 and CD86 on normal donor PBMCs: capable of upregulating CD80 and CD86
[12]; incubated with IL-10 and TGF-β (data not shown)
  up regulation of costimulation in human monocytes: can be achieved
[13]
  inhibition of Stat-3 within immune cells: inhibit Stat-3

## lipopolysaccharide [LPS, reference compound]
[1]
  T cell proliferation: unable to induce any T cell proliferation
[8]; LPS 5 μg/mL
  IL-1β levels compared with WP1066: significantly higher levels
[14]
  up regulating costimulatory molecules on microglia isolated directly from GBM patients: totally insufficient
